Experimental findings from paper PMC9905294 (Biochemistry, 2023) are described below.

Assay [1] has as its target T1, Mtb Eis (Mycobacterium tuberculosis, UniProt P9WFK7). In words: Eis acetylation assay. In kind it is biochemical.
Assay [2] has as its target T1, Mtb Eis. It is filed as biochemical. Conditions: for mode of inhibition with respect to KAN: Michaelis-Menten analysis of KAN acetylation by Eis.
Another assay has as its system Mtb mc^26230. In words: MIC determination of compounds alone. In kind it is cell-based, Mycobacterium tuberculosis. Conditions: for MIC: Mycobacterium tuberculosis, read-out: MIC mc^26230; for MIC mc^26230: compound alone, duplicate.
Another assay addresses AAC(2’)-Ic (Mycobacterium tuberculosis, UniProt P9WQG9). The assay is described as follows: Inhibitor selectivity, NEO acetylation assay. Conditions: concentrations up to 200 μM. In kind it is biochemical.
For a further assay, the target named is AAC(3)-IV (Salmonella sp, UniProt P08988). It is filed as biochemical. Conditions: concentrations up to 200 μM.
AAC(3)-IV, sequence (P08988 whole entry): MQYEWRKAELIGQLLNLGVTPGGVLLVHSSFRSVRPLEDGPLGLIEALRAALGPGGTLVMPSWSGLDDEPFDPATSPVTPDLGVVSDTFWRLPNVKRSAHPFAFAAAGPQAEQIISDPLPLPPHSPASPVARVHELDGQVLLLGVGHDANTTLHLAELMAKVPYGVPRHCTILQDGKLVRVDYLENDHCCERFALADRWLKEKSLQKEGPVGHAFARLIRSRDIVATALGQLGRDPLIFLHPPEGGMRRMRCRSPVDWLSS
For a further assay, the target named is AAC(6’)-Ie/APH(2”)-Ia (Staphylococcus aureus, UniProt P0A0C1). In words: Inhibitor selectivity, NEO acetylation assay. It is filed as biochemical. The conditions noted are these: concentrations up to 200 μM.
AAC(6’)-Ie/APH(2”)-Ia, sequence (P0A0C1 whole entry): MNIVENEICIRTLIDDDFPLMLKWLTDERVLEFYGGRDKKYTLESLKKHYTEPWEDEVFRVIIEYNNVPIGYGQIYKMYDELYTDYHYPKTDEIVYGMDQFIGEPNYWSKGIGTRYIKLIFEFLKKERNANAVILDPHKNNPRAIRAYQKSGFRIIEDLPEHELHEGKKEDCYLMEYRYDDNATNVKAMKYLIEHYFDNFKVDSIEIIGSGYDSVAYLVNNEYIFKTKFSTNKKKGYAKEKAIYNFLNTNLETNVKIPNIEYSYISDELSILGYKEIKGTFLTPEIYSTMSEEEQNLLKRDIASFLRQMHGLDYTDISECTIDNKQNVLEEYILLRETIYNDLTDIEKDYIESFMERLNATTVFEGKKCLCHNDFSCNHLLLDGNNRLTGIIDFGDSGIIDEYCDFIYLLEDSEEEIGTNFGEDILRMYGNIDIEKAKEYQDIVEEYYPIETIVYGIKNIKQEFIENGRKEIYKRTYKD
Assay [3] deals with T1, Mtb Eis. The assay is described as follows: Screening acetylation assay with NEO as substrate. Conditions: conditions of the original high-throughput assay; compound 20 μM, NEO 100 μM. It is filed as biochemical.
Setting [4] is: with respect to KAN, global nonlinear regression fit.
Setting [5] is: Eis 0.25 μM, KAN 100 μM, AcCoA 0.5 mM, Tris-HCl pH 8.0, triplicate.

In brackets after ≈: the same amount, converted by molar mass. Like-named read-outs stand apart in the source and are kept apart here.

T1 sequence (P9WFK7 whole entry): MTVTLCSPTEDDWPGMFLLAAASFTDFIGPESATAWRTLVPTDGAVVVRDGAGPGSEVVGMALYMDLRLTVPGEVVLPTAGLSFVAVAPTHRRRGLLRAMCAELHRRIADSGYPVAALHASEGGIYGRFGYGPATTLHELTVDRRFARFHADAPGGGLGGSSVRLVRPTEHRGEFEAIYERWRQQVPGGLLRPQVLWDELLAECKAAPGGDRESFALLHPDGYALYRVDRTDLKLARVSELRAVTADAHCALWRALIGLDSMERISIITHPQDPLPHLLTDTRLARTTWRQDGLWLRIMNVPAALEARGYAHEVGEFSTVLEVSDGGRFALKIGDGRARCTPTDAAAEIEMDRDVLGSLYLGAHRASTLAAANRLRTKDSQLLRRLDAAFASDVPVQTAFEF
AAC(2’)-Ic, sequence (P9WQG9 whole entry): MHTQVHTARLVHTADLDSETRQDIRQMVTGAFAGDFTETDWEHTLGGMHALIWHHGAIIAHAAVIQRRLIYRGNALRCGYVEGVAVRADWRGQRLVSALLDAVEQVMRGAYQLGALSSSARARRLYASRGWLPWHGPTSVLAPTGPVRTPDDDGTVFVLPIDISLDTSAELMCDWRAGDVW

With `CN1CCCC(n2nc(Cc3ccc(Cl)cc3)c3ccccc3c2=O)CC1` (stereo not shown) [Azelastine (AZL), Azelastine], the IC50 at Mtb Eis [1] is 0.79 ± 0.08 µM. Further, on Mtb Eis [2], the affinity corresponds to a Ki of 0.24 ± 0.05 µM and the “mode of inhibition with respect to KAN” value is recorded as “competitive”. In addition, at Mtb Eis [2] (setting [4]), the “Ki,u (equilibrium constant for inhibitor binding to enzyme-substrate complex)” value was 0.9 ± 0.5 (p = 0.08) μM. Also, in the assay with Mtb mc^26230, the MIC stood at 32 µM (≈ 12.2 µg/mL). In addition, the “inhibition of NEO acetylation by AAC(2’)-Ic” value (“inhibition … by AAC(2’)-Ic” below) against AAC(2’)-Ic is “not inhibited”. The “inhibition of NEO acetylation by AAC(3)-IV” value (from here on “inhibition … by AAC(3)-IV”) against AAC(3)-IV is “not inhibited”. Besides, the “inhibition of NEO acetylation by AAC(6’)-Ie” value (from here on “inhibition … by AAC(6’)-Ie”) at AAC(6’)-Ie/APH(2”)-Ia is “not inhibited”.

Consider `[H]/N=C(\N/C(=N/[H])NCCCCCCNC(=N)NC(=N)Nc1ccc(Cl)cc1)Nc1ccc(Cl)cc1` [Chlorhexidine (CHX), Chlorhexidine], for which the MIC in the assay on Mtb mc^26230 was at most 0.03 µM.

For `CCN(CC)CCCC(C)Nc1ccnc2cc(Cl)ccc12` (stereo not shown) [Chloroquine (CHQ), Chloroquine], the IC50 at Mtb Eis [1] is 20 ± 2 µM. For the same compound, on Mtb Eis [2], the Ki was found to be 12.3 ± 2.7 µM and the “mode of inhibition with respect to KAN” value was “competitive”. The “Ki,u (equilibrium constant for inhibitor binding to enzyme-substrate complex)” value on Mtb Eis [2] (setting [4]) is 35 ± 20 (p = 0.1) μM. Moreover, in the assay on Mtb mc^26230, the MIC is 64 µM (≈ 20.5 µg/mL). The “inhibition … by AAC(2’)-Ic” value on AAC(2’)-Ic was “not inhibited”. Further, the “inhibition … by AAC(3)-IV” value against AAC(3)-IV was “not inhibited”. The “inhibition … by AAC(6’)-Ie” value against AAC(6’)-Ie/APH(2”)-Ia is recorded as “not inhibited”.

As to `NC(N)=NN=Cc1ccc(Cl)cc1` [Compound 1], the IC50 at Mtb Eis [1] (setting [5]) came out at 10 ± 3 µM. Besides, on Mtb Eis [1] (ratio of IC50 values vs PRO), the “fold more potent than PRO as an Eis inhibitor” value is given as 3 fold. The “mode of inhibition with respect to KAN” value on Mtb Eis [2] was “competitive inhibition”. Besides, the Ki on Mtb Eis [2] (read-out: Ki (equilibrium constant for inhibitor binding to free enzyme), with respect to KAN, global nonlinear regression fit) came out at 17 ± 2.4 µM. Besides, the “MIC mc^26230” value in the assay on Mtb mc^26230 is above 64 µM.

Turning to `Fc1cccc(NN=Cc2ccc(Cl)cc2)c1` [Compound 2], at Mtb Eis [1] (setting [5]), 160 ± 49 µM corresponded to half-maximal inhibition (IC50). Moreover, the “IC50 fold higher than that of PRO” value at Mtb Eis [1] (ratio of IC50 values vs PRO) was 5 fold. In addition, at Mtb Eis [2], the “mode of inhibition with respect to KAN” value is “uncompetitive inhibition”. Besides, the “Ki,u (equilibrium constant for inhibitor binding to enzyme-substrate complex)” value on Mtb Eis [2] (setting [4]) stood at 104 ± 8 µM. Moreover, the “MIC mc^26230” value against Mtb mc^26230 is above 64 µM.

For `Fc1ccc(NN=Cc2ccc(Cl)cc2)cc1` [Compound 3], the IC50 at Mtb Eis [1] (setting [5]) was above 200 µM. Further, the “IC50 fold higher than that of PRO” value at Mtb Eis [1] (ratio of IC50 values vs PRO) was above 7 fold. In the assay on Mtb mc^26230, the “MIC mc^26230” value was above 64 µM.

For `NNC(=O)c1ccncc1` [Isoniazid (INH), Isoniazid], in the assay with Mtb mc^26230, the MIC is at most 3.6 µM.

As to `NC[C@H]1O[C@H](O[C@H]2[C@H](O)[C@@H](O[C@H]3O[C@H](CO)[C@@H](O)[C@H](N)[C@H]3O)[C@H](N)C[C@@H]2N)[C@H](O)[C@@H](O)[C@@H]1O` [Kanamycin (KAN), Kanamycin], the “MIC mc^26230” value against Mtb mc^26230 came out at 0.17 µM (≈ 0.0824 µg/mL).

In turn, `OC(c1cc(C(F)(F)F)nc2c(C(F)(F)F)cccc12)C1CCCCN1` (stereo not shown) [Mefloquine (MEF), Mefloquine] registered an IC50 against Mtb Eis [1] of 4.2 ± 0.8 µM. Also, the Ki on Mtb Eis [2] amounted to 7.2 ± 1.1 µM. In addition, the “Ki,u (equilibrium constant for inhibitor binding to enzyme-substrate complex)” value at Mtb Eis [2] (setting [4]) is 5.9 ± 1.3 (p = 0.0002) μM. Moreover, the MIC with Mtb mc^26230 is 16 µM (≈ 6.05 µg/mL). In addition, on AAC(2’)-Ic, the “inhibition … by AAC(2’)-Ic” value was “not inhibited”. The “inhibition … by AAC(3)-IV” value at AAC(3)-IV is “not inhibited”. Further, the “inhibition … by AAC(6’)-Ie” value against AAC(6’)-Ie/APH(2”)-Ia is “not inhibited”.

`[H]/N=C(\N/C(=N/[H])Nc1ccc(Cl)cc1)NC(C)C` [Proguanil (PRO), Proguanil] showed an IC50 against Mtb Eis [1] of 30 ± 7 µM. The Ki at Mtb Eis [2] was 28 ± 10 µM. In addition, in the assay on Mtb mc^26230, the MIC is above 64 µM. Also, the “inhibition … by AAC(2’)-Ic” value against AAC(2’)-Ic is listed as “not inhibited”. Further, the “inhibition … by AAC(3)-IV” value on AAC(3)-IV is given as “not inhibited”. The “inhibition … by AAC(6’)-Ie” value at AAC(6’)-Ie/APH(2”)-Ia is listed as “not inhibited”. Further, the “inhibition of NEO acetylation activity of Mtb Eis” value against Mtb Eis [3] is listed as “detectable inhibition”.

Turning to `COc1ccc(C(CN(C)C)C2(O)CCCCC2)cc1` (stereo not shown) [Venlafaxine (VEN), Venlafaxine], on Mtb Eis [1], the IC50 came out at 134 ± 21 µM. Besides, the MIC with Mtb mc^26230 is above 64 µM. Moreover, on Mtb Eis [3], the “inhibition of NEO acetylation activity of Mtb Eis” value is listed as “detectable inhibition”.
